“And” between values parts separate entries of the source, which are not always exact repeats. Identical values can stand only once.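 Grown in 96-well plates, cells were treated for 48 hours with each compound at five concentrations. Insufficient inhibition: endpoint recorded as highest concentration tested. GI50 = concentration required for 50% inhibition of growth.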 The source made the active and inactive calls. Rule as the data show it: active = GI50 up to about 1.1 µM and inactive = higher.
Legend:
Test in all cases: NCI tumour cell line growth inhibition, 48 h
EKVX = system: EKVX
U-251 = system: U-251
UACC-257 = system: UACC-257
SK-MEL-2 = system: SK-MEL-2
NCI-H522 = system: NCI-H522
TK-10 = system: TK-10
DMS-273 = system: DMS-273
XF498 = system: XF498
SW-620 = system: SW-620
DMS-114 = system: DMS-114
SF-295 = system: SF-295
HCC 2998 = system: HCC 2998
COLO 205 = system: COLO 205
SNB-19 = system: SNB-19
IGROV-1 = system: IGROV-1
HOP-92 = system: HOP-92
RXF 393 = system: RXF 393
KM-20L2 = system: KM-20L2
A498 = system: A498
SK-MEL-28 = system: SK-MEL-28
DLD-1 = system: DLD-1
HCT-116 = system: HCT-116
SN12C = system: SN12C
HCT-15 = system: HCT-15
SK-OV-3 = system: SK-OV-3
NCI-H226 = system: NCI-H226
SF-268 = system: SF-268
OVCAR-4 = system: OVCAR-4
Malme-3M = system: Malme-3M
SK-MEL-5 = system: SK-MEL-5
LOX IMVI = system: LOX IMVI
KM12 = system: KM12
HOP-62 = system: HOP-62
UACC-62 = system: UACC-62
UO-31 = system: UO-31
NCI-H23 = system: NCI-H23
A549 = system: A549
LXFL 529 = system: LXFL 529
786-0 = system: 786-0
CAKI-1 = system: CAKI-1
ACHN = system: ACHN
SNB-75 = system: SNB-75
OVCAR-5 = system: OVCAR-5
M19-MEL = system: M19-MEL
SNB-78 = system: SNB-78
HT-29 = system: HT-29
OVCAR-3 = system: OVCAR-3
M14 = system: M14
OVCAR-8 = system: OVCAR-8
MOLT-4 = system: MOLT-4
SF-539 = system: SF-539
K562 = system: K562
CCRF-CEM = system: CCRF-CEM
NCI-H460 = system: NCI-H460
SR = system: SR
HL-60 = system: HL-60

Q: With `N#CCC(=O)N/N=C1/C(=O)N(c2ccc(Cl)cc2)C(=O)C(=O)C1c1nc2ccccc2s1` (stereo not given) as the compound, how does the GI50 (EKVX) read?
A: The GI50 was 89.3 µM (inactive).

Q: And the GI50 (U-251)?
A: The GI50 was > 100 µM (inactive).

Q: And the GI50 (UACC-257)?
A: Its GI50 is 65.6 µM (inactive).

Q: And the GI50 (SK-MEL-2)?
A: Its GI50 is 89.9 µM (inactive).

Q: And the GI50 (NCI-H522)?
A: Its GI50 is 46.3 µM (inactive).

Q: What about the GI50 (TK-10) of the same compound?
A: The GI50 was > 100 µM (inactive).

Q: And the GI50 (DMS-273)?
A: The GI50 was > 100 µM (inactive).

Q: What about the GI50 (XF498) of the same compound?
A: Its GI50 is > 100 µM (inactive).

Q: And the GI50 (SW-620)?
A: The GI50 was > 100 µM (inactive).

Q: What about the GI50 (DMS-114) of the same compound?
A: The GI50 was > 100 µM (inactive).

Q: What about the GI50 (SF-295) of the same compound?
A: The GI50 was > 100 µM (inactive).

Q: What about the GI50 (HCC 2998) of the same compound?
A: Its GI50 is > 100 µM (inactive).

Q: And the GI50 (COLO 205)?
A: Its GI50 is > 100 µM (inactive).

Q: And the GI50 (SNB-19)?
A: The GI50 was > 100 µM (inactive).

Q: And the GI50 (IGROV-1)?
A: Its GI50 is > 100 µM (inactive).

Q: And the GI50 (HOP-92)?
A: Its GI50 is 28.2 µM (inactive).

Q: And the GI50 (RXF 393)?
A: The GI50 was 25.8 µM (inactive).

Q: And the GI50 (KM-20L2)?
A: Its GI50 is > 100 µM (inactive).

Q: And the GI50 (A498)?
A: Its GI50 is > 100 µM (inactive).

Q: And the GI50 (SK-MEL-28)?
A: Its GI50 is > 100 µM (inactive).

Q: What about the GI50 (DLD-1) of the same compound?
A: Its GI50 is > 100 µM (inactive).

Q: And the GI50 (HCT-116)?
A: Its GI50 is 53.7 µM (inactive).

Q: What about the GI50 (SN12C) of the same compound?
A: Its GI50 is > 100 µM (inactive).

Q: What about the GI50 (HCT-15) of the same compound?
A: The GI50 was greater than 100 µM.

Q: And the GI50 (SK-OV-3)?
A: The GI50 was > 100 µM (inactive).

Q: And the GI50 (NCI-H226)?
A: Its GI50 is 26.3 µM (inactive).

Q: What about the GI50 (SF-268) of the same compound?
A: The GI50 was 55.5 µM (inactive).

Q: And the GI50 (OVCAR-4)?
A: The GI50 was > 100 µM (inactive).

Q: And the GI50 (Malme-3M)?
A: Its GI50 is > 100 µM (inactive).

Q: And the GI50 (SK-MEL-5)?
A: Its GI50 is > 100 µM (inactive).

Q: And the GI50 (LOX IMVI)?
A: Its GI50 is 38.2 µM (inactive).

Q: What about the GI50 (KM12) of the same compound?
A: Its GI50 is > 100 µM (inactive).

Q: What about the GI50 (HOP-62) of the same compound?
A: The GI50 was > 100 µM (inactive).

Q: What about the GI50 (UACC-62) of the same compound?
A: The GI50 was 60.3 µM (inactive).

Q: What about the GI50 (UO-31) of the same compound?
A: Its GI50 is 28.5 µM (inactive).

Q: And the GI50 (NCI-H23)?
A: Its GI50 is > 100 µM (inactive).

Q: What about the GI50 (A549) of the same compound?
A: The GI50 was > 100 µM (inactive).

Q: And the GI50 (LXFL 529)?
A: The GI50 was > 100 µM (inactive).

Q: And the GI50 (786-0)?
A: Its GI50 is > 100 µM (inactive).

Q: And the GI50 (CAKI-1)?
A: The GI50 was > 100 µM (inactive).

Q: What about the GI50 (ACHN) of the same compound?
A: Its GI50 is > 100 µM (inactive).

Q: What about the GI50 (SNB-75) of the same compound?
A: The GI50 was 20.8 µM (inactive).

Q: And the GI50 (OVCAR-5)?
A: Its GI50 is > 100 µM (inactive).

Q: What about the GI50 (M19-MEL) of the same compound?
A: Its GI50 is 40.7 µM (inactive).

Q: And the GI50 (SNB-78)?
A: Its GI50 is > 100 µM (inactive).

Q: And the GI50 (HT-29)?
A: The GI50 was > 100 µM (inactive).

Q: What about the GI50 (OVCAR-3) of the same compound?
A: Its GI50 is > 100 µM (inactive).

Q: And the GI50 (M14)?
A: Its GI50 is > 100 µM (inactive).

Q: And the GI50 (OVCAR-8)?
A: The GI50 was 95.9 µM (inactive).

Q: With `CC(=O)c1c(O)c(C)c(O)c2c1OC1=CC(=O)C(C(C)=O)C(=O)C12C` (stereo not given) as the compound, how does the GI50 (XF498) read?
A: The GI50 was 555 nM (active) and 422 nM (active).

Q: And the GI50 (SK-MEL-28)?
A: The GI50 was 14.3 µM (inactive) and 17.1 µM (inactive).

Q: What about the GI50 (Malme-3M) of the same compound?
A: Its GI50 is 13.1 µM (inactive) and 23.7 µM (inactive).

Q: With `CN(C)c1c([O-])c(=[N+](C)C)c1=O` as the compound, how does the GI50 (MOLT-4) read?
A: The GI50 was > 100 µM (inactive).

Q: And the GI50 (EKVX)?
A: The GI50 was > 100 µM (inactive).

Q: What about the GI50 (U-251) of the same compound?
A: The GI50 was > 100 µM (inactive).

Q: What about the GI50 (SF-539) of the same compound?
A: The GI50 was > 100 µM (inactive).

Q: And the GI50 (UACC-257)?
A: Its GI50 is > 100 µM (inactive).

Q: What about the GI50 (SK-MEL-2) of the same compound?
A: Its GI50 is > 100 µM (inactive).

Q: And the GI50 (K562)?
A: The GI50 was > 100 µM (inactive).

Q: And the GI50 (NCI-H522)?
A: The GI50 was > 100 µM (inactive).

Q: What about the GI50 (TK-10) of the same compound?
A: Its GI50 is > 100 µM (inactive).

Q: What about the GI50 (DMS-273) of the same compound?
A: The GI50 was > 100 µM (inactive).

Q: What about the GI50 (XF498) of the same compound?
A: Its GI50 is > 100 µM (inactive).

Q: And the GI50 (SW-620)?
A: Its GI50 is > 100 µM (inactive).

Q: And the GI50 (SF-295)?
A: The GI50 was > 100 µM (inactive).

Q: And the GI50 (HCC 2998)?
A: Its GI50 is > 100 µM (inactive).

Q: What about the GI50 (CCRF-CEM) of the same compound?
A: The GI50 was > 100 µM (inactive).

Q: And the GI50 (SNB-19)?
A: Its GI50 is > 100 µM (inactive).

Q: What about the GI50 (IGROV-1) of the same compound?
A: Its GI50 is > 100 µM (inactive).

Q: What about the GI50 (HOP-92) of the same compound?
A: The GI50 was > 100 µM (inactive).

Q: What about the GI50 (RXF 393) of the same compound?
A: The GI50 was > 100 µM (inactive).

Q: What about the GI50 (A498) of the same compound?
A: Its GI50 is > 100 µM (inactive).

Q: And the GI50 (SK-MEL-28)?
A: Its GI50 is > 100 µM (inactive).

Q: And the GI50 (HCT-116)?
A: Its GI50 is > 100 µM (inactive).

Q: And the GI50 (SN12C)?
A: Its GI50 is > 100 µM (inactive).

Q: What about the GI50 (HCT-15) of the same compound?
A: The GI50 was greater than 100 µM.

Q: What about the GI50 (SK-OV-3) of the same compound?
A: The GI50 was > 100 µM (inactive).

Q: And the GI50 (NCI-H226)?
A: The GI50 was > 100 µM (inactive).

Q: And the GI50 (SF-268)?
A: Its GI50 is > 100 µM (inactive).

Q: And the GI50 (LOX IMVI)?
A: Its GI50 is > 100 µM (inactive).

Q: And the GI50 (KM12)?
A: The GI50 was > 100 µM (inactive).

Q: What about the GI50 (HOP-62) of the same compound?
A: The GI50 was > 100 µM (inactive).

Q: And the GI50 (UACC-62)?
A: Its GI50 is > 100 µM (inactive).

Q: What about the GI50 (UO-31) of the same compound?
A: The GI50 was > 100 µM (inactive).

Q: And the GI50 (NCI-H460)?
A: The GI50 was > 100 µM (inactive).

Q: And the GI50 (NCI-H23)?
A: Its GI50 is > 100 µM (inactive).

Q: What about the GI50 (A549) of the same compound?
A: The GI50 was > 100 µM (inactive).

Q: What about the GI50 (LXFL 529) of the same compound?
A: Its GI50 is > 100 µM (inactive).

Q: What about the GI50 (786-0) of the same compound?
A: The GI50 was > 100 µM (inactive).

Q: And the GI50 (SR)?
A: Its GI50 is > 100 µM (inactive).

Q: What about the GI50 (CAKI-1) of the same compound?
A: The GI50 was > 100 µM (inactive).

Q: And the GI50 (ACHN)?
A: Its GI50 is > 100 µM (inactive).

Q: What about the GI50 (HL-60) of the same compound?
A: The GI50 was > 100 µM (inactive).

Q: What about the GI50 (SNB-75) of the same compound?
A: Its GI50 is > 100 µM (inactive).

Q: What about the GI50 (OVCAR-5) of the same compound?
A: Its GI50 is > 100 µM (inactive).

Q: What about the GI50 (SNB-78) of the same compound?
A: The GI50 was > 100 µM (inactive).

Q: What about the GI50 (HT-29) of the same compound?
A: Its GI50 is > 100 µM (inactive).

Q: And the GI50 (OVCAR-3)?
A: The GI50 was > 100 µM (inactive).

Q: And the GI50 (M14)?
A: Its GI50 is > 100 µM (inactive).

Q: What about the GI50 (OVCAR-8) of the same compound?
A: The GI50 was > 100 µM (inactive).
